Source: paper PMC7767381, “Exploring the Anti-Cancer Mechanism of Novel 3,4′-Substituted Diaryl Guanidinium Derivatives” (Pharmaceuticals, 2020)

Columns and labels:
HeLa cells = test: alamarBlue cell viability assay, HeLa; assay type: cell-based; details: Homo sapiens, 72 h, read-out: HeLa IC50 ± SEM
Description: (§1) Cell viability and proliferation assays were used to evaluate the in vitro cytotoxicity of all synthesised compounds in a variety of different cancer cell lines using the alamarBlue® viability assay and the results are presented in Table 1 and Table 2. The sensitivity of cancer cells to drugs can often be compromised by PIK3CA, Ras and BRAF mutations. To determine whether such mutations are critical to the efficacy of our new compounds we tested them in a range of cancerous cell lines expressing different mutations. Firstly, we used the HL-60 (human promyelocytic leukaemia, NRas mutated) cell line for general cytotoxicity screening of all compounds. […] Lastly, toxicity against MCF-10A, which is a non-tumorigenic epithelial cell line, was also assessed for one of the most promising compounds (4). The graphs representing the viability results with the HL-60, MCF-7, HeLa, HCT-116, and HKH-2 cancer cell lines for compound 1 and derivatives 2, 3, and 4 are shown in Figures S7–S10 (ESI).
(§2) Cells were counted and seeded in 96-well plates at a density of 2 × 10^5 cells/mL for HL-60, 2.5 × 10^4 cells/mL for MCF-7, MCF10A and HeLa, 1 × 10^5 cells/mL for HCT116 and HKH-2, all of them in their respective media. The 96-well plates were then treated with a 1:100 dilution of stock concentrations of drugs or EtOH (1% v/v)/DMSO (0.1% v/v) as vehicle control in triplicate. Three blank wells containing 200 µL RPMI with no cells were also set-up as blanks. After a 72 h incubation, 20 µL of alamarBlue was added to each well. The plates were incubated in darkness at 37 °C for 4–5 h using a Molecular Devices microplate reader, the fluorescence (F) was then read at an excitation wavelength of 544 nm and an emission wavelength of 590 nm. Cell viability was then determined by subtracting the mean blank fluorescence (Fb) from the treated sample fluorescence (Fs) and expressing this as a percentage of the fluorescence of the blanked vehicle control (Fc). […] The results were then plotted as a nonlinear regression, sigmoidal dose-response curves on Prism, from which the IC50 value for each drug was determined.
(§3) The MCF-7 (human breast tumour) cell line was obtained from Prof. Mary Meegan, School of Pharmacy, TCD. It was maintained in Roswell Park Memorial Institute (RPMI) 1640 medium with stable glutamate (GlutaMax I) supplemented with 10% (v/v) fetal bovine serum (FBS), 1% (v/v) penicillin/ streptomycin (pen-strep) and 2 mM L-glutamine.
(§4) The HeLa (human epitheloid cervix carcinoma) cell line was obtained from Prof. Thorfinnur Gunnlaugsson, School of Chemistry TCD. It was maintainedin Dulbecco's Modified Eagle's Medium (DMEM) supplemented with 10% (v/v) fetal bovine serum (FBS) and 1%(v/v) penicillin/ streptomycin (pen-strep).
(§5) The HCT116and HKH-2 (human colon cancer cells) cell lines were obtained from Prof. James Murray, School of Biochemistry and Immunology TCD. They were maintainedin Dulbecco's Modified Eagle's Medium (DMEM) supplemented with 10% (v/v) fetal bovine serum (FBS), 1% (v/v) penicillin/ streptomycin (pen-strep), 1% (v/v) sodium pyruvate (NaPyr), 1% (v/v) L-glutamine (L-Glu) and, only for HKH-2, 0.6 mg/mL geneticine (G418).
MCF-10A (human breast epithelial) cell line was obtained from Prof. Mary Meegan, School of Pharmacy, TCD. […]
(§6) Cells were counted and seeded in 96 well plates at a density of 2 × 10^5 cells/mL for HL-60, 2.5× 10^4 cells/mL for MCF-7, MCF10A and HeLa, 1 × 10^5 cells/mL for HCT116 and HKH-2, all of them in their respective media. […]

MCF-7 cells = test: alamarBlue cell viability assay, MCF-7; assay type: cell-based; details: Homo sapiens, MCF7, 72 h, read-out: MCF-7 IC50 ± SEM
Description: as §1, §2, §3, §4, §5
MCF-10A (human breast epithelial) cell line was obtained from Prof. Mary Meegan, School of Pharmacy, TCD. It was cultured in Dulbecco’s Modified Eagle Medium/Nutrient Mixture F-12 (DMEM/F12; Gibco) supplemented with 5% horse serum (Invitrogen), 20 ng/mL epidermal growth factor (Merck Millipore), 0.5 μg/mL hydrocortisone (Sigma), 100 ng/mL cholera toxin (Sigma), 10 μg/mL insulin (Sigma), and penicillin/streptomycin (1% v/v) (Gibco).
4.4. AlamarBlue ® Cell Viability Assay
as §6, with “media. The 96 well plates were then treated with a 1:100 dilution of stock concentrations of drugs or EtOH (1% v/v)/DMSO (0.1% v/v) as vehicle control in triplicate.” for “media.”

SMILES	IC50 (HeLa cells) [µM]	IC50 (MCF-7 cells) [µM]
Cl.Cl.N=C(N)Nc1ccc(Oc2cccc(NC(=N)Nc3ccc(Cl)c(C(F)(F)F)c3)c2)cn1 [Compound 2, 1-(4-Chloro-3-(trifluoromethyl)phenyl)-3-(3-((6-guanidinopyridin-3-yl)oxy)phenyl) guanidine dihydrochloride]	4.87 ± 0.27	4.91 ± 1.04
Cl.N=C(N)Nc1ccc(Oc2cccc(Nc3ccc(Cl)c(C(F)(F)F)c3)c2)cc1 [Compound 3, 1-(4-(3-((4-Chloro-3-(trifluoromethyl)phenyl)amino)phenoxy)phenyl)guanidine hydrochloride]	4.33 ± 0.54	2.02 ± 0.27
Cl.N=C(N)Nc1ccc(Oc2cccc(Nc3ccc(Cl)c(C(F)(F)F)c3)c2)cn1 [Compound 4, 1-(5-(3-((4-Chloro-3-(trifluoromethyl)phenyl)amino)phenoxy)pyridin-2-yl)guanidine hydrochloride]	1.33 ± 0.08	3.73 ± 0.35
